Measurements as given in PubChem BioAssay AID1259408 (Genetic Toxicology Data Bank (GENE-TOX), 2018).
Activity calls are given as the source filed them. How the calls were made is not given here.

Tested on: GENE-TOX genotoxicity assays, various organisms and cells
Assay: GENE-TOX mutagenicity studies
Conditions: for call: Assay Type: In vivo carcinogenicity studies
[1] = Species/Cell Type: Escherichia coli polA (W3119 vs P3478), Assay Type: Rec-assay, DNA effects (bacterial DNA repair), Assay Code: RE1+, Evaluation Type: Evaluation A (Pre-1980)
[2] = Species/Cell Type: Neurospora crassa, Assay Type: Forward gene mutation, Assay Code: NEF+, Evaluation Type: Evaluation A (Pre-1980)
[3] = Species/Cell Type: Neurospora crassa, Assay Type: Reverse gene mutation, Assay Code: NER+, Evaluation Type: Evaluation A (Pre-1980)
[4] = Species/Cell Type: Nonhuman, Assay Code: CCG+, Evaluation Type: Evaluation A (Pre-1980)
[5] = Species/Cell Type: Nonhuman, Assay Type: Sister-chromatid exchange (SCE) in vitro, Assay Code: SC2+D, Dose Response: With dose response, Evaluation Type: Evaluation B (Post-1980)
[6] = Species/Cell Type: Salmonella typhimurium (one or more of the five standard strains: TA98, TA100, TA1535, TA1537, and TA1538), Assay Type: Histidine reverse gene mutation, Ames assay, Assay Code: SAL+, Evaluation Type: Evaluation A (Pre-1980)
[7] = Species/Cell Type: Drosophila melanogaster, Assay Type: Sex-linked recessive lethal gene mutation, Assay Code: SRLT, Evaluation Type: Evaluation A (Pre-1980)
[8] = Species/Cell Type: Human lymphocytes, Assay Type: Sister-chromatid exchange (SCE) in vitro, Assay Code: SCL+D, Dose Response: With dose response, Evaluation Type: Evaluation B (Post-1980)
[9] = Species/Cell Type: Human, Assay Type: Sister-chromatid exchange (SCE) in vitro, Assay Code: SC1+D, Dose Response: With dose response, Evaluation Type: Evaluation B (Post-1980)
[10] = Species/Cell Type: Drosophila melanogaster, Assay Type: Sex-linked recessive lethal gene mutation, Assay Code: SRL+, Evaluation Type: Evaluation A (Pre-1980)
[11] = Species/Cell Type: Mammalian polychromatic erythrocytes, Assay Type: Micronucleus test, chromosome aberrations, Assay Code: MNTT, Evaluation Type: Evaluation A (Pre-1980)
[12] = Species/Cell Type: Mouse, Sex: Male, Assay Type: Sperm morphology, Assay Code: SPI-, Evaluation Type: Evaluation A (Pre-1980)

## O=CNc1nc(-c2ccc([N+](=O)[O-])o2)cs1
Species/Cell Type: Bacillus subtilis (H17 vs M45), Assay Type: Rec-assay, spot test, DNA effects (bacterial DNA repair), Assay Code: REW+, Evaluation Type: Evaluation A (Pre-1980)
  mutagenic call: active; positive
Species/Cell Type: Escherichia coli WP2, Assay Type: Tryptophan reverse gene mutation, Assay Code: WP2+, Evaluation Type: Evaluation A (Pre-1980)
  mutagenic call: active; positive
Species/Cell Type: Escherichia coli WP2 UVRA, Assay Type: Tryptophan reverse gene mutation, Assay Code: WPU+D, Dose Response: With dose response, Evaluation Type: Evaluation A (Pre-1980)
  mutagenic call: active; positive
[1]
  mutagenic call: active; positive
Species/Cell Type: Fischer rat embryo (RLV/1706) cells, Assay Type: Cell transformation, viral enhanced, Assay Code: CTR+, Evaluation Type: Evaluation A (Pre-1980)
  mutagenic call: active; positive
Species/Cell Type: Mouse, Sex: Male, Assay Type: Sperm morphology, Assay Code: SPIT, Evaluation Type: Evaluation A (Pre-1980)
  mutagenic call: no conclusion
[2]
  mutagenic call: active; positive
[3]
  mutagenic call: active; positive
[4]
  call: active; positive
[5]
  mutagenic call: active; positive
Species/Cell Type: Saccharomyces cerevisiae, Assay Type: Mitotic recombination or gene conversion, Assay Code: YEC+, Evaluation Type: Evaluation A (Pre-1980)
  mutagenic call: active; positive
Species/Cell Type: Saccharomyces cerevisiae, Assay Type: Mitotic recombination or gene conversion, Assay Code: YEH+, Evaluation Type: Evaluation A (Pre-1980)
  mutagenic call: active; positive
[6]
  mutagenic call: active; positive
Species/Cell Type: Salmonella typhimurium and Saccharomyces cerevisiae, Assay Type: Forward and reverse gene mutation, mitotic recombination and gene conversion, DNA effects, body fluid assay, Assay Code: BFG+, Evaluation Type: Evaluation A (Pre-1980)
  mutagenic call: active; positive
Species/Cell Type: Salmonella typhimurium, Saccharomyces cerevisiae, Assay Type: Forward and reverse gene mutation, mitotic recombination and gene conversion, DNA effects, host-mediated assay, Assay Code: HM3+, Evaluation Type: Evaluation A (Pre-1980)
  mutagenic call: active; positive
Species/Cell Type: Syrian hamster embryo (SHE) cells, Assay Type: Cell transformation, clonal assay, Assay Code: CTC+, Evaluation Type: Evaluation A (Pre-1980)
  mutagenic call: active; positive

## CN(C)N=Nc1ccc(O)cc1
[7]
  mutagenic call: no conclusion
Species/Cell Type: Saccharomyces cerevisiae, Assay Type: Mitotic recombination or gene conversion, Assay Code: YEC+/-*, Activation: With metabolic activation, Evaluation Type: Evaluation A (Pre-1980)
  mutagenic call: inactive; positive without activation, negative with activation

## Cc1c2ccccc2c(C)c2c1cc(F)c1ccccc12
Species/Cell Type: Chinese hamster lung (V79) cells, Assay Type: Forward gene mutation at the HPRT or ouabain locus, Assay Code: V79-*, Activation: With metabolic activation, Evaluation Type: Evaluation A (Pre-1980)
  mutagenic call: inactive; negative

## O=c1cc(-c2ccccc2)oc2c1ccc1ccccc12
[8]
  mutagenic call: active; positive
[9]
  mutagenic call: active; positive
Species/Cell Type: Human, Assay Type: Sister-chromatid exchange (SCE) in vitro, Assay Code: SC1T, Evaluation Type: Evaluation A (Pre-1980)
  mutagenic call: no conclusion
Species/Cell Type: Mammalian polychromatic erythrocytes, Assay Type: Micronucleus test, chromosome aberrations, Assay Code: MNTT, Evaluation Type: Evaluation B (Post-1980)
  mutagenic call: no conclusion
Species/Cell Type: Syrian hamster embryo (SA7/SHE) cells, Assay Type: Cell transformation, viral enhanced, Assay Code: CT7-, Evaluation Type: Evaluation A (Pre-1980)
  mutagenic call: inactive; negative

## C[C@@H]1C(=O)OCC2=CCN3CC[C@@H](OC(=O)[C@@H](C)[C@@]1(C)O)[C@@H]23
[10]
  mutagenic call: active; positive
Species/Cell Type: Drosophila melanogaster, Sex: Male, Assay Type: Heritable translocation test, chromosome aberrations, Assay Code: DHT+, Evaluation Type: Evaluation A (Pre-1980)
  mutagenic call: active; positive

## O=C1CCCCCN1
Species/Cell Type: Chinese hamster ovary (CHO) cells, Assay Type: Forward gene mutation at the HPRT locus, Assay Code: CHO-, Evaluation Type: Evaluation B (Post-1980)
  mutagenic call: inactive; negative
Species/Cell Type: Nonhuman, Assay Code: CCG-, Evaluation Type: Evaluation A (Pre-1980)
  call: inactive; negative

## C#C[C@]1(OC(C)=O)CC[C@H]2[C@@H]3CCC4=CC(=O)CC[C@@H]4[C@H]3CC[C@@]21C
Species/Cell Type: Rodents, Sex: Male, Assay Type: Dominant lethal test, Assay Code: DLTT, Evaluation Type: Evaluation A (Pre-1980)
  mutagenic call: no conclusion

## c1ccc2cc3ccccc3cc2c1
Species/Cell Type: Escherichia coli polA (W3110 vs P3478), Assay Type: Rec-assay, DNA effects (bacterial DNA repair), Assay Code: RE2-, Evaluation Type: Evaluation A (Pre-1980)
  mutagenic call: inactive; negative
Species/Cell Type: Escherichia coli polA (W3119 vs P3478), Assay Type: Rec-assay, DNA effects (bacterial DNA repair), Assay Code: RE1T, Evaluation Type: Evaluation A (Pre-1980)
  mutagenic call: no conclusion
Species/Cell Type: Fischer rat embryo (RLV/1706) cells, Assay Type: Cell transformation, viral enhanced, Assay Code: CTRT, Evaluation Type: Evaluation A (Pre-1980)
  mutagenic call: no conclusion
Species/Cell Type: Human diploid fibroblasts, Assay Type: Unscheduled DNA synthesis (UDS) in vitro, DNA effects, Assay Code: UDH-*, Activation: With metabolic activation, Evaluation Type: Evaluation A (Pre-1980)
  mutagenic call: inactive; negative
[11]
  mutagenic call: no conclusion
Species/Cell Type: Mouse (BALB/c-3T3) cells, Assay Type: Cell transformation, Assay Code: CTB-, Evaluation Type: Evaluation A (Pre-1980)
  mutagenic call: inactive; negative
Species/Cell Type: Mouse embryo (AKR/ME) cells, Assay Type: Cell transformation, Assay Code: CTK-, Evaluation Type: Evaluation A (Pre-1980)
  mutagenic call: inactive; negative
[12]
  mutagenic call: inactive; negative
Species/Cell Type: Nonhuman, Assay Type: Chromosome aberrations in vitro, Assay Code: CY&-, Evaluation Type: Evaluation A (Pre-1980)
  mutagenic call: inactive; negative
Species/Cell Type: Nonhuman, Assay Code: CCGT, Evaluation Type: Evaluation A (Pre-1980)
  call: no conclusion
[5]
  mutagenic call: active; positive
Species/Cell Type: Nonhuman, Assay Type: Sister-chromatid exchange (SCE) in vitro, Assay Code: SC2T, Evaluation Type: Evaluation A (Pre-1980)
  mutagenic call: no conclusion
Species/Cell Type: Nonhuman, Assay Type: Sister-chromatid exchange (SCE) in vivo, Assay Code: SC3-, Evaluation Type: Evaluation A (Pre-1980)
  mutagenic call: inactive; negative
Species/Cell Type: Nonhuman, Assay Type: Sister-chromatid exchange (SCE) in vivo, Assay Code: SC3T, Evaluation Type: Evaluation B (Post-1980)
  mutagenic call: no conclusion
Species/Cell Type: Rat primary hepatocytes, Assay Type: Unscheduled DNA synthesis (UDS) in vitro, DNA effects, Assay Code: UDP-, Evaluation Type: Evaluation A (Pre-1980)
  mutagenic call: inactive; negative
Species/Cell Type: Saccharomyces cerevisiae, Assay Type: Mitotic recombination or gene conversion, Assay Code: YEH-, Evaluation Type: Evaluation A (Pre-1980)
  mutagenic call: inactive; negative
Species/Cell Type: Salmonella typhimurium (one or more of the five standard strains: TA98, TA100, TA1535, TA1537, and TA1538), Assay Type: Histidine reverse gene mutation, Ames assay, Assay Code: SAL-, Evaluation Type: Evaluation A (Pre-1980)
  mutagenic call: inactive; negative
Species/Cell Type: Salmonella typhimurium, Assay Type: Forward and reverse gene mutation, host-mediated assay, Assay Code: HMAT, Evaluation Type: Evaluation A (Pre-1980)
  mutagenic call: no conclusion
Species/Cell Type: Syrian hamster embryo (SHE) cells, Assay Type: Cell transformation, clonal assay, Assay Code: CTC-, Evaluation Type: Evaluation A (Pre-1980)
  mutagenic call: inactive; negative

## O=c1ccn([C@H]2C[C@H](O)[C@@H](COP(=O)(O)O)O2)c(=O)[nH]1
[7]
  mutagenic call: no conclusion

## CCOC(C)=O
Species/Cell Type: Bacillus subtilis (H17 vs M45), Assay Type: Rec-assay, spot test, DNA effects (bacterial DNA repair), Assay Code: REWT, Evaluation Type: Evaluation A (Pre-1980)
  mutagenic call: no conclusion
Species/Cell Type: Mammalian polychromatic erythrocytes, Assay Type: Micronucleus test, chromosome aberrations, Assay Code: MNT-, Evaluation Type: Evaluation B (Post-1980)
  mutagenic call: inactive; negative

## ClCC1CO1 (configuration not stated)
[10]
  mutagenic call: active; positive
[1]
  mutagenic call: active; positive
Species/Cell Type: Human lymphocytes or leukocytes, Assay Type: Chromosome aberrations in vitro, Assay Code: CY7+, Evaluation Type: Evaluation A (Pre-1980)
  mutagenic call: active; positive
Species/Cell Type: Human lymphocytes or leukocytes, Assay Type: Chromosome aberrations in vivo, Assay Code: CY8+, Evaluation Type: Evaluation A (Pre-1980)
  mutagenic call: active; positive
[8]
  mutagenic call: active; positive
[9]
  mutagenic call: active; positive
Species/Cell Type: Human, Sex: Male, Assay Type: Sperm morphology, Assay Code: SPH-, Evaluation Type: Evaluation A (Pre-1980)
  mutagenic call: inactive; negative
[11]
  mutagenic call: no conclusion
[12]
  mutagenic call: inactive; negative
[2]
  mutagenic call: active; positive
[3]
  mutagenic call: active; positive
[4]
  call: active; positive
[5]
  mutagenic call: active; positive
[6]
  mutagenic call: active; positive
Species/Cell Type: Schizosaccharomyces pombe, Assay Type: Forward gene mutation, Assay Code: YEY+, Evaluation Type: Evaluation A (Pre-1980)
  mutagenic call: active; positive
Species/Cell Type: Schizosaccharomyces pombe, Assay Type: Reverse gene mutation, Assay Code: YEZ+, Evaluation Type: Evaluation A (Pre-1980)
  mutagenic call: active; positive
